The values below come from US20080188506A1, “SPIROINDOLINONE DERIVATIVES” (priority 2007, published 2008).

Each structure is given as a SMILES string.

interaction between p53 and MDM2 proteins (recombinant GST-tagged MDM2 / p53 peptide), sequence (Q00987 whole entry): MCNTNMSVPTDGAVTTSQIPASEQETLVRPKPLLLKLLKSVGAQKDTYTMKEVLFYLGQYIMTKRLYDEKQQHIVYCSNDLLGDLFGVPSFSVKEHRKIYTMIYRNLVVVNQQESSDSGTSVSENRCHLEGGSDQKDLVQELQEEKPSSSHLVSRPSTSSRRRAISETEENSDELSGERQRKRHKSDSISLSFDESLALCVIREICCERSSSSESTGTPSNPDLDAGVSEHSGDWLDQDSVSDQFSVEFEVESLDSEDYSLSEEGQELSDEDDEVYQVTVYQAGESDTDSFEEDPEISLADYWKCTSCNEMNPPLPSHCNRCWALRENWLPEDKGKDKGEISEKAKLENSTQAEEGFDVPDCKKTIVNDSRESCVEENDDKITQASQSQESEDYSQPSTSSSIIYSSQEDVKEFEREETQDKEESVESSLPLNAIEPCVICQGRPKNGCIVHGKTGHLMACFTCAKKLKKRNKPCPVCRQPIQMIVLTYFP

The assay addresses interaction between p53 and MDM2 proteins (recombinant GST-tagged MDM2 / p53 peptide) (Homo sapiens, UniProt Q00987). Briefly: HTRF assay of inhibition of the p53-MDM2 interaction (GST-MDM2 / biotinylated p53 peptide). It counts as binding. The note with it: 0.2% BSA, 37° C. 1 h. As for the experimental part: The ability of the compounds to inhibit the interaction between p53 and MDM2 proteins was measured by an HTRF (homogeneous time-resolved fluorescence) assay in which recombinant GST-tagged MDM2 binds to a peptide that resembles the MDM2-interacting region of p53 (Lane et al.). Binding of GST-MDM2 protein and p53-peptide (biotinylated on its N-terminal end) is registered by the FRET (fluorescence resonance energy transfer) between Europium (Eu)-labeled anti-GST antibody and streptavidin-conjugated Allophycocyanin (APC).
Test is performed in black flat-bottom 384-well plates (Costar) in a total volume of […] containing:90 nM biotinylate peptide, 160 ng/ml GST-MDM2, 20 nM streptavidin-APC (PerkinElmerWallac), 2 nM Eu-labeled anti-GST-antibody (PerkinElmerWallac), 0.2% bovine serum albumin (BSA), 1 mM dithiothreitol (DTT) and 20 mM […] (TBS) buffer as follows: Add 10 uL of GST-MDM2 (640 ng/ml working solution) in reaction buffer to each well. Add 10 uL diluted compounds (1:5 dilution in reaction buffer) to each well, mix by shaking. Add 20 uL biotinylated p53 peptide (180 nM working solution) in reaction buffer to each well and mix on shaker. Incubate at 37° C. for 1 h. Add 20 uL streptavidin-APC and Eu-anti-GST antibody mixture (6 nM Eu-anti-GST and 60 nM streptavidin-APC working solution) in TBS buffer with 0.2% BSA, shake at room temperature for 30 minutes and read using a TRF-capable plate reader at 665 and 615 nm (Victor 5, Perkin ElmerWallac). If not specified, the reagents were purchased from Sigma Chemical Co.
Background: In TR-FRET formats the signal depends on donor and acceptor labels being close together.
For `O=C1Nc2cc(Cl)ccc2[C@]12[C@@H](c1ccccc1C(F)(F)F)NCC[C@H]2c1cccc(Cl)c1` (racemic) [Example 11c], the IC50 stood at 6.95 µM.

`COc1ccc(F)cc1[C@H]1NCC[C@@H](c2cccc(Cl)c2)[C@]12C(=O)Nc1cc(Cl)ccc12` (racemic) [Example 16c, racemic (2′R, 3R, 4′S)-6-chloro-4′-(3-chlorophenyl)-2′-(5-fluoro-2-methoxyphenyl) spiro[3H-indole-3,3′-piperidine]-2(1H)-one]: the half-inhibitory concentration (IC50) came to 2.31 µM.

In the case of `COc1cccc([C@H]2NCC[C@@H](c3cccc(Cl)c3)[C@]23C(=O)Nc2cc(Cl)ccc23)c1` (racemic) [Example 8c, racemic (2′R, 3R, 4′S)-6-chloro-4′-(3-chlorophenyl)-2′-(3-methoxyphenyl) spiro[3H-indole-3,3′-piperidine]-2(1H)-one], the IC50 turned out to be 5.21 µM.

As for `C=C(CC(C)C)[C@H]1n2cnnc2C[C@@H](c2cccc(Cl)c2)[C@]12C(=O)Nc1cc(Cl)ccc12` (racemic) [Example 44h], the IC50 was 1.03 µM.

As a reminder, the IC50 is the midpoint of a concentration-inhibition curve.
